Measured values reported in ChEMBL document CHEMBL1151531, “Taxol structure-activity relationships: synthesis and biological evaluation of taxol analogs modified at C-7” (Bioorg Med Chem Lett, 1994).

Columns and labels:
[1] = biological target: Tubulin alpha chain (Sus scrofa) (UniProt P02550); assay: Initial tubulin polymerization rate relative to taxol.; type: functional
HCT-116 = assay: In vitro inhibition of proliferation of human colon cancer line 116 after 72 hrs incubation.; type: functional, cell-based; conditions: HCT-116, 72 h
Mus musculus [2] = assay: Compound was evaluated in vivo against i.p. implanted M109 tumor on day 5 and 8 post implantation at a dose of 50-75 mg/kg/injection when administered i.p; type: functional
Mus musculus [3] = assay: Compound was evaluated in vivo against i.p. implanetd M109 tumor on day 5 and 8 post implantation at a dose of 132 mg/kg/injection when administered i.p; type: functional; conditions: route intraperitoneal
Mus musculus [4] = assay: Compound was evaluated in vivo against i.p. implanetd M109 tumor on day 5 and 8 post implantation when administered i.p.; Scheduled; type: functional, organism-based
Mus musculus [5] = assay: Compound was evaluated in vivo against i.p. implanetd M109 tumor on day 5 and 8 post implantation at a dose of 30 mg/kg/injection when administered i.p; type: functional; conditions: route intraperitoneal
Mus musculus [6] = assay: Compound was evaluated in vivo against i.p. implanetd M109 tumor on day 5 and 8 post implantation at a dose of 32 mg/kg/injection when administered i.p; type: functional; conditions: route intraperitoneal
Mus musculus [7] = assay: Compound was evaluated in vivo against i.p. implanetd M109 tumor on day 5 and 8 post implantation at a dose of 50 (mg/kg/inj)when administered i.p; type: functional
Mus musculus [8] = assay: Compound was evaluated in vivo against i.p. implanetd M109 tumor on day 5 and 8 post implantation at a dose of 64 mg/kg/injection when administered i.p; type: functional; conditions: route intraperitoneal
Mus musculus [9] = assay: Compound was evaluated in vivo against i.p. implanetd M109 tumor on day 5 and 8 post implantation at a dose of 40 mg/kg/injection when administered i.p; type: functional; conditions: route intraperitoneal
Mus musculus [10] = assay: Compound was evaluated in vivo against i.p. implanetd M109 tumor on day 5 and 8 post implantation at a dose of 80 mg/kg/injection when administered i.p; type: functional; conditions: route intraperitoneal
Mus musculus [11] = assay: Compound was evaluated in vivo against i.p. implanetd M109 tumor on day 5 and 8 post implantation at a dose of 60 mg/kg/injection when administered i.p; type: functional; conditions: route intraperitoneal

Sequence of Tubulin alpha chain (Sus scrofa) (P02550 whole entry, looked up): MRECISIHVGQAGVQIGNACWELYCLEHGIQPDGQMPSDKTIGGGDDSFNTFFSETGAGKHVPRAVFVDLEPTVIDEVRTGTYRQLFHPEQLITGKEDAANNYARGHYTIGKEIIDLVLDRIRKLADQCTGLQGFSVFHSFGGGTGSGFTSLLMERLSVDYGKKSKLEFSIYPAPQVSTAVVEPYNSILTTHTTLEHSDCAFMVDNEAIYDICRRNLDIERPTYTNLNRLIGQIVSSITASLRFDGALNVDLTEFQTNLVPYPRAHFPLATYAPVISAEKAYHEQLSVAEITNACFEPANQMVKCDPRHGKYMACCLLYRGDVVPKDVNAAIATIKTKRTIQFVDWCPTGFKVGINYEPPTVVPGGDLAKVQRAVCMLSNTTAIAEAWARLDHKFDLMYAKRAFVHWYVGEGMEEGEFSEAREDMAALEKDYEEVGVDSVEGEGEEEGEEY

Initial rate ratio [1] | IC50 (HCT-116) [nM] | SMILES | also measured
0.4 | > 100 | CC(=O)O[C@H]1C(=O)[C@]2(C)C(OC(=O)NCCN(C)C)C[C@H]3OC[C@@]3(OC(C)=O)C2[C@H](OC(=O)c2ccccc2)[C@]2(O)C[C@H](OC(=O)[C@H](O)[C@@H](NC(=O)c3ccccc3)c3ccccc3)C(C)=C1C2(C)C (stereo partly drawn) | 
0 | > 60 | CC(=O)O[C@H]1C(=O)[C@]2(C)C(O[Si](C)(C)C)C[C@H]3OC[C@@]3(OC(C)=O)C2[C@H](OC(=O)c2ccccc2)[C@]2(O)C[C@H](OC(=O)[C@H](O)[C@@H](NC(=O)c3ccccc3)c3ccccc3)C(C)=C1C2(C)C (stereo partly drawn) | 
 |  | CC(=O)O[C@H]1C(=O)[C@@]2(C)[C@H]([C@H](OC(=O)c3ccccc3)[C@]3(O)C[C@H](OC(=O)[C@H](O)[C@@H](NC(=O)c4ccccc4)c4ccccc4)C(C)=C1C3(C)C)[C@]1(OC(C)=O)CO[C@@H]1C[C@@H]2O [PACLITAXEL] | Max T/C (Mus musculus [2]): 276
2 | 3 | CC(=O)O[C@@]12CO[C@@H]1C[C@H](O)[C@@]1(C)C(=O)[C@H](O)C3=C(C)[C@@H](OC(=O)[C@H](O)[C@@H](NC(=O)OC(C)(C)C)c4ccccc4)C[C@@](O)([C@@H](OC(=O)c4ccccc4)[C@H]21)C3(C)C [DOCETAXEL] | Max T/C (Mus musculus [4]): Scheduled
 | 2 | CC(=O)O[C@H]1C(=O)[C@@]2(C)C([C@H](OC(=O)c3ccccc3)[C@]3(O)C[C@H](OC(=O)[C@H](O)[C@@H](NC(=O)c4ccccc4)c4ccccc4)C(C)=C1C3(C)C)[C@]1(OC(C)=O)CO[C@@H]1C[C@H]2O (stereo partly drawn) | Max T/C (Mus musculus [5]): 126; Max T/C (Mus musculus [6]): 154
1.1 |  | CC(=O)O[C@H]1C(=O)[C@@]2(C)C([C@H](OC(=O)c3ccccc3)[C@]3(O)C[C@H](OC(=O)[C@H](O)[C@@H](NC(=O)c4ccccc4)c4ccccc4)C(C)=C1C3(C)C)[C@]1(OC(C)=O)CO[C@@H]1C[C@@H]2OS(C)(=O)=O (stereo partly drawn) | 
0.23 | 4 | CC(=O)O[C@H]1C(=O)[C@]2(C)CC[C@H]3OC[C@@]3(OC(C)=O)C2[C@H](OC(=O)c2ccccc2)[C@]2(O)C[C@H](OC(=O)[C@H](O)[C@@H](NC(=O)c3ccccc3)c3ccccc3)C(C)=C1C2(C)C (stereo partly drawn) | Max T/C (Mus musculus [7]): 157
0 | > 78 | CC(=O)O[C@H]1C(=O)[C@]2(C)C(O[Si](C)(C)c3ccccc3)C[C@H]3OC[C@@]3(OC(C)=O)C2[C@H](OC(=O)c2ccccc2)[C@]2(O)C[C@H](OC(=O)[C@H](O)[C@@H](NC(=O)c3ccccc3)c3ccccc3)C(C)=C1C2(C)C (stereo partly drawn) | 
0.8 | 1.6 | CC(=O)O[C@H]1C(=O)[C@]2(C)CC[C@H]3OC[C@@]3(OC(C)=O)C2[C@H](OC(=O)c2ccccc2)[C@]2(O)C[C@H](OC(=O)[C@H](O)[C@@H](NC(=O)OC(C)(C)C)c3ccccc3)C(C)=C1C2(C)C (stereo partly drawn) | Max T/C (Mus musculus [8]): 156
0.53 | > 78 | CC[Si](CC)(CC)OC1C[C@H]2OC[C@@]2(OC(C)=O)C2[C@H](OC(=O)c3ccccc3)[C@]3(O)C[C@H](OC(=O)[C@H](O)[C@@H](NC(=O)c4ccccc4)c4ccccc4)C(C)=C([C@@H](OC(C)=O)C(=O)[C@]12C)C3(C)C (stereo partly drawn) | 
0.72 | 6 | CCOC(=O)O[C@H]1C[C@H]2OC[C@@]2(OC(C)=O)C2[C@H](OC(=O)c3ccccc3)[C@]3(O)C[C@H](OC(=O)[C@H](O)[C@@H](NC(=O)c4ccccc4)c4ccccc4)C(C)=C([C@@H](OC(C)=O)C(=O)[C@@]21C)C3(C)C (stereo partly drawn) | Max T/C (Mus musculus [9]): 289
0.96 | 46 | CCCCNC(=O)OC1C[C@H]2OC[C@@]2(OC(C)=O)C2[C@H](OC(=O)c3ccccc3)[C@]3(O)C[C@H](OC(=O)[C@H](O)[C@@H](NC(=O)c4ccccc4)c4ccccc4)C(C)=C([C@@H](OC(C)=O)C(=O)[C@]12C)C3(C)C (stereo partly drawn) | 
0.81 | 7 | CC(=O)O[C@H]1C(=O)[C@@]2(C)C([C@H](OC(=O)c3ccccc3)[C@]3(O)C[C@H](OC(=O)[C@H](O)[C@@H](NC(=O)c4ccccc4)c4ccccc4)C(C)=C1C3(C)C)[C@]1(OC(C)=O)CO[C@@H]1C[C@@H]2OC(=O)CCl (stereo partly drawn) | 
1.31 | 5 | CC(=O)O[C@H]1C(=O)[C@]2(C)C=C[C@H]3OC[C@@]3(OC(C)=O)C2[C@H](OC(=O)c2ccccc2)[C@]2(O)C[C@H](OC(=O)[C@H](O)[C@@H](NC(=O)c3ccccc3)c3ccccc3)C(C)=C1C2(C)C (stereo partly drawn) | Max T/C (Mus musculus [11]): 161
0.71 | > 3900 | CC(=O)O[C@H]1C(=O)[C@]2(C)C(OC(=O)NCCCC(=O)O)C[C@H]3OC[C@@]3(OC(C)=O)C2[C@H](OC(=O)c2ccccc2)[C@]2(O)C[C@H](OC(=O)[C@H](O)[C@@H](NC(=O)c3ccccc3)c3ccccc3)C(C)=C1C2(C)C (stereo partly drawn) | 

SMILES | Initial rate ratio [1] | IC50 (HCT-116) [nM] | also measured
CC(=O)O[C@H]1C(=O)[C@@]2(C)C([C@H](OC(=O)c3ccccc3)[C@]3(O)C[C@H](OC(=O)[C@H](O)[C@@H](NC(=O)c4ccccc4)c4ccccc4)C(C)=C1C3(C)C)[C@]1(OC(C)=O)CO[C@@H]1C[C@H]2F (stereo partly drawn) | 1.45 | 11 | Max T/C (Mus musculus [3]): 185
CC(=O)O[C@H]1C(=O)[C@@]2(C)C([C@H](OC(=O)c3ccccc3)[C@]3(O)C[C@H](OC(=O)[C@H](O)[C@@H](NC(=O)OC(C)(C)C)c4ccccc4)C(C)=C1C3(C)C)[C@]1(OC(C)=O)CO[C@@H]1C[C@H]2F (stereo partly drawn) | 0.8 | 4.7 | Max T/C (Mus musculus [9]): 147
CC(=O)O[C@H]1C(=O)[C@]23C[C@H]2C[C@H]2OC[C@@]2(OC(C)=O)C3[C@H](OC(=O)c2ccccc2)[C@]2(O)C[C@H](OC(=O)[C@H](O)[C@@H](NC(=O)c3ccccc3)c3ccccc3)C(C)=C1C2(C)C (stereo partly drawn) | 0.56 | 8 | Max T/C (Mus musculus [10]): 156
